Measurements published in BindingDB's records for doi:10.1021/jm00105a061 (Zambeletti Research Laboratories, 1991).
Structures can show the parent of a compound that is named as a salt.

Tests used:
[1] = Compound was evaluated for its binding affinity against Opioid receptor delta 1 subtype in guinea pig brain (minus cerebellum) using [3H]DADLE as radioligand.
[2] = Compound was evaluated for its binding affinity against opioid receptor delta subtype in guinea pig brain (minus cerebellum) using [3H]-DADLE as radioligand.

Structure (SMILES)	Ki [1]	Ki [2]
O=C(Cc1ccc(Cl)c(Cl)c1)N1CCCCC1CN1CCCC1 (stereo not drawn)	> 10 µM	
O=C(Cc1ccc(O)cc1)N1CCCCC1CN1CCCC1 (stereo not drawn)		> 10 µM
CN1CCCC1C1CCCCN1C(=O)Cc1ccc(Cl)c(Cl)c1 (stereo not drawn) [(threo)2-(3,4-Dichloro-phenyl)-1-[2-(1-methyl-pyrrolidin-2-yl)-piperidin-1-yl]-ethanone(HCl)]		> 10 µM
